From patent US6552066B1, “Protein tyrosine kinase inhibitors for treating osteoarthritis” (priority 1995, dated 2003)

How the values were obtained:
[1] = tested on: IL-1-induced aggrecan degradation; experiment: Aggrecan degradation in IL-1-stimulated chondrocytes, 2-B-6 antibody immunoblot; type: cell-based, bovine
Method: (§1) Primary bovine articular chondrocytes from calf adio-carpal joints were isolated and cultured as above in Example 1, up to and including the addition of the following protein kinase inhibitors: 1) Protein kinase A (PKA) inhibitors; 0.5 μM H88 (Seikagaku Corp.), 0.5 μM H89 (Seikagaku Corp.); 2) Protein kinase C (PKC) inhibitors; 0.5 μM Calphostin C (Calbiochem), 1.0 μM Chelerythrine (Calbiochem); 3) CA^2+/Calmodulin Kinase II inhibitor; 5.0 μM KN93 (Seikagaku Corp.); 4) Protein tyrosine kinase (PTK) inhibitors; 50 μM Genistein (Calbiochem), 10 μM Herbimycin A (Calbiochem). After the 24 hour IL-1α incubation, the media of each sample was measured, and collected on ice in the presence of the protease inhibitors EGTA (5 mM), Pefaloc (1 mM), pepstatin (1 μg/ml), and NEM (5 mM). Media were concentrated approximately 40 fold using a Centriprep-10 ultrafiltration device (Amicon).
(§2) Proteoglycans contained within the media were deglycosylated by incubations with chondroitinase ABC, keratinase, and keratinase II following the procedure of Sandy et al. J Biol Chem (1991) 266:8683-8685 and Sandy et al. J. Clin Invest (1992) 89:1512-1516. Samples of deglycosylated media were subjected to 4-15% gradient SDS-PAGE and transferred to nitrocellulose membranes (2 ml-worth and 6 ml-worth of media were used for 2-B-6 and BC-3 immunoblotting, respectively.) The membranes were blocked with 1% nonfat dry milk and 1% BSA, and then incubated in either the BC-3 or 2-B-6 primary monoclonal antibody for 1 hour. The 2-B-6 antibody detects chondroitin sulfate stubs on chondroitinase-treated proteoglycans (both intact and degradation products. BC-3 antibody detects “ARGSV . . . ,” the new N-terminus (“neoepitope”) resulting from cleavage of aggrecan interglobular domain at Glu^373/ALA^374 by aggrecanase. It is of note to mention that the BC-3 and 2-B-6 antibodies were of low sensitivity. Following 3 washes, membranes were incubated in either alkaline phosphatase-conjugated goat anti-mouse (for the 2-B-6 blot) or biotinylated goat anti-mouse (for the BC-3 blot); followed by alkaline phosphatase-conjugated streptavidin/biotin complex). After washing 3 times, immunoreactive proteins were detected using NBT/BCIP (Sigma) colorimetric substrate.
The 2-B-6 antibody detected intact aggrecan (the uppermost band) and several aggrecan degradation products, along with decorin and biglycan (50K doublet), in the IL-1-treated media samples. […] The bands in the IL-1 sample that are seen at 230K, 200K, 130K and 100K have been previously identified by sequence analysis to result from IL-1-induced “aggrecanase” cleavage.
A repeat of the Western immunoblotting experiment using 2-B-6 antibodies was performed. Furthermore, additional inhibitors from four enzyme families were examined: 1) Protein tyrosine kinase (PTK) inhibitors; 1 μM Tryphostin AG 1296 (Calbiochem), 50 μM Tyrphostin A25 (AG 82) (Calbiochem), 50 μM Tyrphostin AG 126 (Calbiochem), 50 μM Tyrphostin B56 (AG 556) (Calbiochem), 20 μM DAPH (Calbiochem); 2) Guanylate cyclase inhibitor; 10 μM LY-83583 (Calbiochem); 3) Casein kinase I inhibitor; 20 μM CKI-7 (Seikagaku Corp.); and 4) Protein kinase G (PKG) and PKA inhibitor; 5.0 μM H89.

[2] = tested on: IL-1 induced release of 35S-labelled proteoglycans from chondrocytes; experiment: Chondrocyte cell culture matrix breakdown assay (IL-1 induced 35S release); type: cell-based, calf (bovine); conditions: for inhibitory effect on IL-1 induced release of 35S-labelled proteoglycans: first experiment; for percent inhibition of IL-1 induced 35S release: repeated assay
Method: A cell culture assay was used to measure the ability of the test compounds to slow the degradation of the extracellular matrix by a metalloproteinase. This assay measured the amount ^35S released from chondrocytes grown in a media with ^35S labeled sodium sulfate. The cell culture assay was carried out as follows:
Two or three 1 to 3 week old calf joints were obtained from an abattoir. The proximal end of the shank was about 4-5′ long to facilitate immobilization in the holder. The joint was kept cool and transported on ice. The exterior of the intact joints was washed well with a suitable anti-microbial soap, rinsed clean with warm water, rinsed in betadine and then finally rinsed with 70% ethanol. Up to this point all steps were done in a manner to ensure that the joint was kept as clean as possible. All subsequent steps were performed in a sterile field (i.e., in a Edgeguard laminar flow tissue culture hood). The joint was immobilized and the synovial fluid was aspirated with a needle and syringe. The joint was then cut open to expose the articular cartilage using a #21 scalpel. Using locking hemostats, forceps and a #15 scalpel, the cartilage was excised in full thickness pieces. Care was taken not to cut too deep into the subchondral bone to prevent bleeding. The cartilage pieces were placed into a 50 mL centrifuge tube containing 25 mL of Delbecco's phosphate buffered saline (D-PBS) supplemented with 1% antibiotic solution (penicillin, streptomycin and fungizone; GIBCO/BRL). The slices from each joint were then placed into separate 50 mL centrifuge tubes. The D-PBS was decanted and replaced with 25 mL of fresh D-PBS supplemented with antibiotics and subsequently agitated gently.
The cartilage pieces were transferred to a fresh 50 mL centrifuge tube and rinsed once more with 25 mL of D-PBS minus antibiotics. An enzymatic digestion solution containing 1 mg/mL of hyaluronidase in serum-free 1:1 DMEM/Ham's F-12 (DMEM/F12) was prepared. This solution was filter sterilized with 0.22 mm Milex-GV filter and kept on ice until ready to use. The cartilage pieces were digested with approximately 5 mL of hyaluronidase solution per joint for 2×15 minutes at 37° C. in the 50 mL centrifuge tube with gentle agitation at the 15 minute mark. This procedure removed residual hyaluronic acid from the surface of the chips. The enzymatic digestion solution was then aspirated and the cartilage pieces were rinsed with 25 mL of D-PBS.
A second enzymatic digestion solution containing 2.5 mg trypsin and 2 mg collagenase P per mL serum-free DMEM/F12 was prepared. This solution was also filter sterilized with a 0.22 mm Millex-GV filter and kept on ice until ready to use. The cartilage pieces were digested with approximately 5 mL of trypsin: collagenase solution per joint for 2×15 minutes at 37° C. in the 50 mL centrifuge tube with gentle agitation at the 15 minute mark. This procedure removed the synovial fibroblasts and any adherent connective tissue from the surface of the chips. The enzymatic digestion solution was then carefully removed and saved and the cartilage pieces were rinsed with 25 mL of D-PBS.
A third enzymatic solution containing 2 mgs of collagenase P (BMB) per mL serum-free DMEM/F12 was prepared. This solution was filter sterilized with a 0.22 mm Millex-GV filter and kept on ice until ready to use. The pre-digested cartilage pieces were finally digested with approximately 20 mL of enzymatic digestion solution per joint for 5-6 hours at 37° C. in a Bellco stirring digestion flask, at which point the cartilage was fully digested away.
The enzymes in the synovial fibroblast and chondrocyte digest were neutralized by addition of an equal volume of DMEM/F12 supplemented with 5% fetal bovine serum. Fibroblasts were plated in DMEM at a cellular density of 6.6×10^3 cells per cm^2. […]

prostromelysin protein = experiment: Western immunoblot of IL-1-induced prostromelysin protein in primary bovine chondrocytes; type: cell-based; conditions: for effect on IL-1-induced prostromelysin levels: first experiment; for effect on IL-1α-induced prostromelysin protein levels: repeat experiment
Method: Isolation and culturing of primary bovine articular chondrocytes, as well as addition of inhibitors were performed as indicated above in Example 4. The following protein kinase inhibitors were tested: 1) Protein kinase A (PKA) inhibitors; 0.5 μM H88 (Seikagaku Corp.), 0.5 μM H89 (Seikagaku Corp.), 2) Protein kinase C (PKC) inhibitors; 0.5 μM Calphostin C (Calbiochem), 1.0 μM Chelerythrine (Calbiochem); 3) CA^2+/Calmodulin Kinase II inhibitor; 5.0 μM KN93 (Seikagaku Corp.); 4) Protein tyrosine kinase (PTK) inhibitors; 50 μM Genistein (Calbiochem), 10 μM Herbimycin A (Calbiochem).
After the 24 hour IL-1α incubation, the media of each sample was measured and collected on ice in the presence of the protease inhibitors EGTA (5 mM), Pefabloc (1 mM), pepstatin (1 μg/ml), and NEM (5 mM). Media were concentrated approximately 40 fold using a Centriprep-10 ultrafiltration device (Amicon). Concentrated samples were normalized to equivalent starting concentrations (cell number/culture volume), were reduced in the presence of SDS Laemmli sample buffer and electrophoresed in a precast 12% polyacrylamide gel (BioRad). Protein samples were then electroblotted to nitrocellulose and immunodetected using a primary antibody that recognizes both prostromelysin and stromelysin. Immunoreactive bands were visualized with the ABC detection (Pierce) and an NBT/BCIP color reagent (Sigma).
A repeat of the Western immunoblotting experiment using antistromelysin antibodies was performed. Furthermore, additional inhibitors from four enzyme families were examined: 1) Protein tyrosine kinase (PTK) inhibitors: 1 μM Tyrphostin AG 1296 (Calbiochem), 50 μM Tyrphostin A25 (AG 82) (Calbiochem), 50 μM Tyrphostin AG 126 (Calbiochem); 2) Guanylate cyclase inhibitor; 10 μM LY-83583 (Calbiochem); 3) Casein kinase I inhibitor; 20 μM CKI-7 (Seikagaku Corp.); and 4) Protein kinase G (PKG) and PKA inhibitor; 5.0 μM H89.

[3] = tested on: aggrecanase cleavage of aggrecan (230K fragment); experiment: Aggrecanase neoepitope in IL-1-stimulated chondrocytes, BC-3 antibody immunoblot; type: cell-based, bovine
Method: as §1, §2

[4] = tested on: primary bovine articular chondrocytes; experiment: In vitro MTT cytotoxicity assay; type: cell-based; conditions: 1 μM; 20 hours incubation + 4 hours MTT
Description: The evaluation of cytotoxicity of compounds by in vitro methods allows one to establish criteria which allow rank ordering among compounds. These methods assess cell permeability, release of cytosolic enzymes, and oxidative potential of cells. The use of tetrazolium dyes to assess cytotoxicity has been established in the area of oncology, where such assays were developed to assess the cytotoxic potential of various chemotherapeutic agents. We have adapted the use of the MTT (3-(4,5-dimethylthiazol-2-yl)-2,5-diphenyl tetrazolium bromide) in an assay using primary bovine articular chondrocytes. The procedure for this assay is given below.
Chondrocytes are isolated from bovine calf radio-carpal joints as described in Example 1. Cells are plated in two 96-well plates at 4×10^4 cells per well, in DMEM/F12 media supplemented with 10% fetal bovine serum. The cultures are refed on days 4, 7, 11, 14, 18, 21 and 24. On day 27, the cells are rinsed with PBS, and incubated for 20 hours with 0.2 ml/well of serum-free DMEM/F12 plus 0.1% DMSO, and the test compounds. Genistein (50 μM), Herbimycin (10 μM) and Staurosporine (1 μM) were each used as test compounds. […] The 96-well plate is then read in a microplate reader at 560 nm, with subtraction of absorbance at 750 nm to account for cell debris.

bovine cartilage explant = conditions: cited from earlier work

In the case of `COc1ccc2c(c[n+](C)c3c4cc5c(cc4ccc23)OCO5)c1OC` [Chelerythrine], the “band pattern (ratio of intact aggrecan to 230K fragment), 2-B-6” value ([1]; 1.0 μM) was “pattern similar to IL-1 alone” and the “inhibitory effect on IL-1 induced release of 35S-labelled proteoglycans” value (“inhibitory effect” below) ([2]; 1 μM) was “no effect”.
With `O=S(=O)(NCCNC/C=C/c1ccc(Br)cc1)c1cccc2cnccc12` [H89] the “effect on IL-1-induced prostromelysin levels” value (prostromelysin protein; 0.5 μM) was “no effect”, the “band pattern (ratio of intact aggrecan to 230K fragment), 2-B-6” value ([1]; 0.5 μM) was “pattern similar to IL-1 alone” and the “BC-3 immunoreactive band at approximately 230K (aggrecanase-mediated fragment)” value (from here on “BC-3 immunoreactive band”) ([3]; 0.5 μM) was “detected”. For the same compound, the “inhibitory effect” value ([2]; 0.5 μM) was “no effect” and the “percent inhibition of IL-1 induced 35S release” value (“percent inhibition” for short) ([2]; 0.5 μM) was “Little or no inhibition”.
For `COc1ccc(S(=O)(=O)N(CCO)c2ccccc2CN(C)C/C=C/c2ccc(Cl)cc2)cc1` [KN-93], the “effect on IL-1-induced prostromelysin levels” value (prostromelysin protein; 5.0 μM) was “no effect”, the “band pattern (ratio of intact aggrecan to 230K fragment), 2-B-6” value ([1]; 5.0 μM) was “pattern similar to IL-1 alone” and the “BC-3 immunoreactive band” value ([3]; 5.0 μM) was “absence”. For the same compound, the “inhibitory effect” value ([2]; 5 μM) was “no effect”.
With `O=C1C(Nc2ccccc2)=CC(=O)c2ncccc21` [LY-83583] the “effect on IL-1α-induced prostromelysin protein levels” value (prostromelysin protein; 10 μM) was “no effect”.
In the case of `CN[C@@H]1C[C@H]2O[C@@](C)([C@@H]1OC)n1c3ccccc3c3c4c(c5c6ccccc6n2c5c31)C(=O)NC4` [Staurosporine], the “cytotoxicity, reduction of MTT dye” value [4] was “reduction of MTT consistent with cytotoxicity”.
In the case of `COc1cc2ncc(-c3ccccc3)nc2cc1OC` [Tyrphostin AG 1296], the “effect on IL-1α-induced prostromelysin protein levels” value (prostromelysin protein; 1 μM) was “no effect”, the “inhibition of IL-1-induced aggrecan degradation, 2-B-6” value ([1]; 1 μM, repeat experiment) was “no inhibitory effect” and the “percent inhibition” value ([2]; 1 μM) was “no inhibition”.
In the case of `NC1=NC(=O)/C(=C2\CCNC(=O)c3[nH]c(Br)cc32)N1` [Z-hymenialdisine], the “inhibition of cartilage degradation in the bovine cartilage explant assay” value (bovine cartilage explant) is listed as “inhibit cartilage degradation”.
With CKI-7 the “effect on IL-1α-induced prostromelysin protein levels” value (prostromelysin protein; 20 μM) was “no effect” and the “percent inhibition” value ([2]; 20 μM) was “no inhibition”.
For Calphostin C, the “effect on IL-1-induced prostromelysin levels” value (prostromelysin protein; 0.5 μM) was “no effect”, the “band pattern (ratio of intact aggrecan to 230K fragment), 2-B-6” value ([1]; 0.5 μM) was “pattern similar to IL-1 alone” and the “BC-3 immunoreactive band” value ([3]; 0.5 μM) was “detected”. For the same compound, the “inhibitory effect” value ([2]; 0.5 μM) was “no effect”.
